Reference: patent US20070224291A1, “Cancer treatment” (priority 2005, published 2007)

Experiments:
[1] = in vivo
Description: (§1) In the study of antitimor properties of the medication of the present invention, the medication was used in doses of 20 and 40 ml/kg, and 10 and 30 ml/kg in the tests on mice and rats, respectively. The general toxic action which the medication had on the organism of the tested animals was estimated by their outer appearance and behavior during the experiment, as well as by the Growth Ratio (GR) expressed in percent.

[2] = system: Sarcoma 45; assay: Antitumor activity, transplantable Sarcoma 45 (subcutaneous); assay type: in vivo; details: rats, reference medication, identical experimental conditions
Description: (§2) The antitumor activity of the medication of the present invention was studied in mice and rats with transplantable tumors of Sarcoma 37, 45, and 180, and Ehrlich ascites tumor.
(§3) Necrosis-free pieces of tumoral tissue (a peripheral part of a tumoral node) cut with scissors to form a homogeneous mass served as transplantants for solid models (Sarcomas 37, 45 and 180). A sterile physiological solution in the proportion of 1:3-1:4 was added to the tumor and the resulting suspension was introduced with a syringe subcutaneously to the animals. The transplantation was conducted in sterile box conditions using 12-14 days' tumor as a donor. The transplantation of sarcomas 37 and 180 was performed by means of subcutaneous introduction of 0.2-0.3 ml of the 20% tumoral suspension in a physiological solution to the axillary crease of each mouse. For the transplantation of Sarcoma 45, by 0.4-0.5 ml of suspension of tumoral cells was introduced subcutaneously (to the lateral area) of each rat. On the 4th-5th days after inoculation, when the transplanted tumor is usually pea-size, the animals were divided into test and control groups each having 8 mice and 10 rats. […] A day after the last injection of the medication, the animals were killed with ether, weighed, and the weight of tumors was measured separately. […]

[3] = system: Sarcoma 37; assay: Antitumor activity, transplantable Sarcoma 37 (subcutaneous); assay type: in vivo; details: mice, reference medication, identical experimental conditions
Description: as §2, §3

[4] = system: Sarcoma 180; assay: Antitumor activity, transplantable Sarcoma 180 (subcutaneous); assay type: in vivo; details: mice, reference medication, identical experimental conditions
Description: as §2, §3

[5] = system: Ehrlich ascites tumor; assay: Antitumor activity, transplantable Ehrlich ascites tumor (intraperitoneal); assay type: in vivo; details: mice, reference medication, optimal therapeutic dose of 25 ml/kg
Description: as §2, §1
The numerical data obtained was processed statistically by Student-Fisher's method.

With O=c1[nH]cc(F)c(=O)[nH]1 [5-fluorouracil] the “GR, span over all tests” value [1] was −7.3 to −11, the “inhibition of tumor growth” value [2] was 32% and the “therapeutic effect (inhibition of tumor growth)” value [3] was 70%. For the same compound, the “inhibition of tumor growth” value [4] was 45% and the “antitumor effect (inhibition of ascit accumulation)” value [5] was 70%.
